In patent publication US20060193925A1, “Side effect-relieving agents and/or hypoglycemic effect enhancers for thiazolidine compounds” (KANEBO, LIMITED, priority 2001, published 2006):
Counter-ions that a name gives are not always drawn.

Key:
Format in all cases: in vivo
[1] = Test Example 1: body weight gain inhibiting effect; conditions: KKA^y mice, 8/group, in powder diet, pioglitazone 5 mg/kg/day, extract powder of Preparation Example 1 1.5 g/kg/day
From the text: (§1) Divided into groups of 8 mice, 7-week old KKA^y mice which were genetically obese diabetic animals were used. Group (a) was fed only on a powder diet (CE-2, produced by Clea Japan, Inc.) for 5 weeks, and Group (b), Group (c) and Group (d) were given pioglitazone, the extract powder of Preparation Example 1, and pioglitazone and the extract powder of Preparation Example 1, respectively, for 5 weeks by preparing a powder diet so that the daily dose of each therein was of the values shown in Table 1. During the period of the test, body weights were measured, and the formulation of the diet were adjusted in accordance with an increase or decrease in body weight to keep the doses per day in Group (b) and Group (d) constant.
The results were evaluated by comparing the body weight gain observed in each of Groups (a), (b), (c) and (d) (Student's t-test).

[2] = tested on: KKA^y mice; assay: Test Example 2: hypoglycemic effect (blood glucose level in serum); conditions: in powder diet, pioglitazone 5 mg/kg/day, extract powder of Preparation Example 1 1.5 g/kg/day
From the text: as §1
Tests were carried out in the same manner as in Test Example 1. The blood was collected 1 week and 5 weeks after commencement of the administration, and the serum was separated to measure the blood glucose levels.

[3] = Test Example 3: body weight gain inhibiting effect; conditions: KKA^y mice, 7/group, in powder diet, pioglitazone 5 mg/kg/day, extract powder of Preparation Example 2 6.4 g/kg/day
Experimental: (§2) Divided into groups of 7 mice, 7-week old KKA^y mice which were genetically obese diabetic animals were used, and the tests were carried out in the same manner as in Test Example 1, except Group (c) and (d) were given the extract powder of Preparation Example 2, and pioglitazone and the extract powder of Preparation Example 2, respectively, for 4 weeks by preparing the powder diet so that the daily dose each therein was of the values shown in Table 4.
The results were evaluated in the same manner as in Test Example 1.

[4] = tested on: KKA^y mice; assay: Test Example 4: hypoglycemic effect (blood glucose level in serum); conditions: in powder diet, pioglitazone 5 mg/kg/day, extract powder of Preparation Example 2 6.4 g/kg/day
Experimental: as §2
The test was carried out in the same manner as in Test Example 3. The blood was collected 1 week and 4 weeks after commencement of the administration, and the serum was separated to measure the blood glucose levels.
The results were evaluated in the same manner as in Test Example 2.

CCc1ccc(CCOc2ccc(CC3SC(=O)NC3=O)cc2)nc1 (centres unmarked) [Pioglitazone, pioglitazone hydrochloride]
Body weight gain, 1 week after administration ([1]; 1 week): 5.2 ± 0.2 g | Body weight gain, 5 weeks after administration ([1]; 5 weeks): 11.8 ± 0.6 g | Blood glucose level, 1 week after the administration ([2]; 1 week): 404 ± 28 mg/dL | Blood glucose level, 5 weeks after the administration ([2]; 5 weeks): 527 ± 18 NS mg/dl | Body weight gain, 1 week after administration ([3]; 1 week): 5.3 ± 0.4 g | Body weight gain, 4 weeks after administration ([3]; 4 weeks): 10.7 ± 0.5 g | Blood glucose level, 1 week after the administration ([4]; 1 week): 320 ± 30 mg/dL | Blood glucose level, 4 weeks after the administration ([4]; 4 weeks): 587 ± 24 NS mg/dl
